According to patent US20220370416A1, “COMPOUNDS AND METHODS FOR TARGETED DEGRADATION OF KRAS” (Arvinas Operations, Inc., priority 2020, published 2022):
Each block holds one compound with its values, some of them ahead of it.

How the values were obtained:
HiBit-KRAS^G12C [1] = molecular target: T1, HiBit-KRAS^G12C (Homo sapiens, UniProt P01116, G12C); assay: HiBit degradation assay in MiaPaCa-2 HiBit-KRas^G12C cells; assay type: cell-based; settings: 24 hours
Summary of the method: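 MiaPaCa-2 cells with CRISPR N-terminal HiBit knock-in on one endogenous KRAS^G12C allele, treated 24 hours at 37° C with compound titrated 10 μM to 20 nM (0.1% or 0.5% DMSO). Lytic HiBit luminescence normalized to DMSO, 4-parameter fit giving DC50 and Dmax; points cytotoxic to […] cells by alamar blue excluded.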

HiBit-KRAS^G12C [2] = molecular target: T1, HiBit-KRAS^G12C; assay: HiBit degradation assay in SW1573 HiBit-KRas^G12C cells; assay type: cell-based; set-up: expressed in transfected cells; host or cells: SW1573 (clone E6), modified pcDNA3.1 vector, TK promoter; settings: 24 hours
Summary of the method: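 SW1573 cells stably expressing N-terminally HiBit-tagged KRAS G12C, under the TK promoter, were treated 24 h at 37 °C with 10 μM to 20 nM compound in 0.1% or 0.5% DMSO. Residual HiBit luminescence normalised to DMSO and fitted with a 4-parameter model for DC50 and Dmax. Points with ≥50% viability loss (alamar blue) excluded.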

[3] = MIA PaCa-2, MiaPaCa-2 HiBit-KRas^G12C cells, 0.5% DMSO, maximum degradation, read-out: KRas^G12C-HiBiT (MiaPaCa; 0.5% DMSO) DMax
[4] = read-out: KRas^G12C-HiBiT (MiaPaCa; 0.5% DMSO) IC50, MiaPaCa-2 HiBit-KRas^G12C cells, 0.5% DMSO
[5] = SW1573, SW1573 HiBit-KRas^G12C, 0.5% DMSO, read-out: KRas^G12C-HiBiT (SW1573; 0.5% DMSO) Dmax**
[6] = read-out: KRas^G12C-HiBiT (SW1573; 0.5% DMSO) IC50***, SW1573 HiBit-KRas^G12C, 0.5% DMSO
[7] = read-out: KRas^G12C-HiBiT (MiaPaCa; 0.1% DMSO) IC50, MiaPaCa-2 HiBit-KRas^G12C cells, 0.1% DMSO
[8] = SW1573, read-out: KRas^G12C-HiBit (SW1573; 0.1% DMSO) Dmax**, SW1573 HiBit-KRas^G12C, 0.1% DMSO
[9] = SW1573 HiBit-KRas^G12C, 0.1% DMSO, read-out: KRas^G12C-HIBit (SW1573; 0.1% DMSO) DC50*
[10] = MIA PaCa-2, MiaPaCa-2 HiBit-KRas^G12C cells, 0.1% DMSO, maximum degradation, read-out: KRas^G12C-HiBiT (MiaPaCa; 0.1% DMSO) DMax
[11] = SW1573, SW1573 HiBit-KRas^G12C, 0.1% DMSO, read-out: KRas^G12C-HiBit (SW1573; 0.1% DMSO) Dmax**

T1 sequence (P01116 1-186 isoform P01116-2 G12C limits assumed): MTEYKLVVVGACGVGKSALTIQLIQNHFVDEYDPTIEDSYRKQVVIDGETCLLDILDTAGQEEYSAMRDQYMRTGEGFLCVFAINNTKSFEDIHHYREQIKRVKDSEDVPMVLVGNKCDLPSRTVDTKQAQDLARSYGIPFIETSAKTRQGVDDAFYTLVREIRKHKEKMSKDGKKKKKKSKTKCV

SMILES: C=CC(=O)N1CCN(c2nc(O[C@H](C)CN3CCN(CCOC4CCN(CC(=O)N[C@H](C(=O)N5C[C@H](O)C[C@H]5C(=O)N[C@@H](C)c5ccc(-c6scnc6C)cc5)C(C)(C)C)CC4)CC3)nc3c(F)c(-c4cc(O)cc5ccccc45)c(Cl)cc23)CC1 [Compound 55, (2S,4R)-1-[(2S)-2-{2-[4-(2-{4-[(2R)-2-{[6-chloro-8-fluoro-7-(3-hydroxynaphthalen-1-yl)-4-[4-(prop-2-enoyl)piperazin-1-yl]quinazolin-2-yl]oxy}propyl]piperazin-1-yl}ethoxy)piperidin-1-yl]acetamido}-3,3-dimethylbutanoyl]-4-hydroxy-N-[(1S)-1-[4-(4-methyl-1,3-thiazol-5-yl)phenyl]ethyl]pyrrolidine-2-carboxamide]
DC50 (HiBit-KRAS^G12C [1]; [7]): > 1000 nM | Dmax (HiBit-KRAS^G12C [2]; [8]): < 35% | DC50 (HiBit-KRAS^G12C [2]; [9]): 100 to 1000 nM

SMILES: C=CC(=O)N1CCN(c2nc(O[C@H](C)CN3CCC(COCC(=O)N[C@H](C(=O)N4C[C@H](O)C[C@H]4C(=O)N[C@@H](C)c4ccc(-c5scnc5C)cc4)C(C)(C)C)CC3)nc3c2CCN(c2cc(O)cc4ccccc24)C3)C[C@@H]1CC#N [Compound 29, (2S,4R)-1-[(2S)-2-[2-({1-[(2R)-2-({4-[(3S)-3-(cyanomethyl)-4-(prop-2-enoyl)piperazin-1-yl]-7-(3-hydroxynaphthalen-1-yl)-5H,6H,7H,8H-pyrido[3,4-d]pyrimidin-2-yl}oxy)propyl]piperidin-4-yl}methoxy)acetamido]-3,3-dimethylbutanoyl]-4-hydroxy-N-[(1S)-1-[4-(4-methyl-1,3-thiazol-5-yl)phenyl]ethyl]pyrrolidine-2-carboxamide]
Dmax (HiBit-KRAS^G12C [1]; [10]): 35 to 70% | Dmax (HiBit-KRAS^G12C [1]; [3]): 35 to 70% | Dmax (HiBit-KRAS^G12C [2]; [11]): 35 to 70% | Dmax (HiBit-KRAS^G12C [2]; [5]): 35 to 70% | DC50 (HiBit-KRAS^G12C [2]; [9]): > 1000 nM

SMILES: C=CC(=O)N1CCN(c2nc(OC[C@@H]3C[C@@H](OCCOc4cc(-c5scnc5C)ccc4CNC(=O)[C@@H]4C[C@@H](O)CN4C(=O)[C@H](c4cc(C)no4)C(C)C)CN3C)nc3c2CCN(c2cccc4ccccc24)C3)C[C@@H]1CC#N [Compound 89, (2S,4R)-N-{[2-(2-{[(3R,5S)-5-[({4-[(3S)-3-(cyanomethyl)-4-(prop-2-enoyl)piperazin-1-yl]-7-(naphthalen-1-yl)-5H,6H,7H,8H-pyrido[3,4-d]pyrimidin-2-yl}oxy)methyl]-1-methylpyrrolidin-3-yl]oxy}ethoxy)-4-(4-methyl-1,3-thiazol-5-yl)phenyl]methyl}-4-hydroxy-1-[(2S)-3-methyl-2-(3-methyl-1,2-oxazol-5-yl)butanoyl]pyrrolidine-2-carboxamide]
DC50 (HiBit-KRAS^G12C [1]; [7]): > 1000 nM | DC50 (HiBit-KRAS^G12C [1]; [4]): > 1000 nM | Dmax (HiBit-KRAS^G12C [2]; [11]): 35 to 70% | DC50 (HiBit-KRAS^G12C [2]; [9]): 100 to 1000 nM | DC50 (HiBit-KRAS^G12C [2]; [6]): > 1000 nM

SMILES: C=CC(=O)N1CCN(c2nc(O[C@H](C)CN3CCC(COCC(=O)N[C@H](C(=O)N4C[C@H](O)C[C@H]4C(=O)N[C@@H](C)c4ccc(-c5scnc5C)cc4)C(C)(C)C)CC3)nc3c(F)c(-c4cc(O)cc5cccc(C)c45)c(Cl)cc23)CC1 [Compound 11, (2S,4R)-1-[(2S)-2-[2-({1-[(2R)-2-{[6-chloro-8-fluoro-7-(3-hydroxy-8-methylnaphthalen-1-yl)-4-[4-(prop-2-enoyl)piperazin-1-yl]quinazolin-2-yl]oxy}propyl]piperidin-4-yl}methoxy)acetamido]-3,3-dimethylbutanoyl]-4-hydroxy-N-[(1S)-1-[4-(4-methyl-1,3-thiazol-5-yl)phenyl]ethyl]pyrrolidine-2-carboxamide]
Dmax (HiBit-KRAS^G12C [1]; MIA PaCa-2, read-out: KRas^G12C-HiBiT (MiaPaCa; 0.1% DMSO) DMax, MiaPaCa-2 HiBit-KRas^G12C cells, 0.1% DMSO, maximum degradation): 35 to 70% | Dmax (HiBit-KRAS^G12C [2]; [8]): 35 to 70% | DC50 (HiBit-KRAS^G12C [2]; [9]): 100 to 1000 nM

SMILES: C=CC(=O)N1CCN(c2nc(OCCN3CCC(COCC(=O)N[C@H](C(=O)N4C[C@H](O)C[C@H]4C(=O)N[C@@H](C)c4ccc(-c5scnc5C)cc4)C(C)(C)C)CC3)nc3c(F)c(-c4cc(O)cc5ccccc45)c(Cl)cc23)C[C@@H]1CC#N [Compound 17, (2S,4R)-1-[(2S)-2-[2-({1-[2-({6-chloro-4-[(3S)-3-(cyanomethyl)-4-(prop-2-enoyl)piperazin-1-yl]-8-fluoro-7-(3-hydroxynaphthalen-1-yl)quinazolin-2-yl}oxy)ethyl]piperidin-4-yl}methoxy)acetamido]-3,3-dimethylbutanoyl]-4-hydroxy-N-[(1S)-1-[4-(4-methyl-1,3-thiazol-5-yl)phenyl]ethyl]pyrrolidine-2-carboxamide]
Dmax (HiBit-KRAS^G12C [1]; [10]): > 70% | KRas^G12C-HiBiT (MiaPaCa; 0.5% DMSO) DMax (HiBit-KRAS^G12C [1]; MiaPaCa-2 HiBit-KRas^G12C cells, 0.5% DMSO, maximum degradation): A (A ≥ 70) | Dmax (HiBit-KRAS^G12C [2]; [11]): 35 to 70% | DC50 (HiBit-KRAS^G12C [2]; [9]): 100 to 1000 nM | KRas^G12C-HiBiT (SW1573; 0.5% DMSO) Dmax** (HiBit-KRAS^G12C [2]; SW1573 HiBit-KRas^G12C, 0.5% DMSO): A (A ≥ 70)

Continued, values first:

Dmax (HiBit-KRAS^G12C [1]; [3]): > 70% | DC50 (HiBit-KRAS^G12C [1]; [4]): 100 to 1000 nM | Dmax (HiBit-KRAS^G12C [2]; [5]): > 70% | DC50 (HiBit-KRAS^G12C [2]; [6]): 100 to 1000 nM
SMILES: C=CC(=O)N1CCN(c2nc(OCCN3CCC(COCC(=O)N[C@H](C(=O)N4C[C@H](O)C[C@H]4C(=O)N[C@@H](C)c4ccc(-c5scnc5C)cc4)C(C)(C)C)CC3)nc3c(F)c(-c4cc(O)cc5ccccc45)c(Cl)cc23)[C@@H](C)C1 [Compound 119, (2S,4R)-1-[(2S)-2-(2-{[1-(2-{[6-chloro-8-fluoro-7-(3-hydroxynaphthalen-1-yl)-4-[(2S)-2-methyl-4-(prop-2-enoyl)piperazin-1-yl]quinazolin-2-yl]oxy}ethyl)piperidin-4-yl]methoxy}acetamido)-3,3-dimethylbutanoyl]-4-hydroxy-N-[(1S)-1-[4-(4-methyl-1,3-thiazol-5-yl)phenyl]ethyl]pyrrolidine-2-carboxamide]

Dmax (HiBit-KRAS^G12C [1]; [3]): > 70% | DC50 (HiBit-KRAS^G12C [1]; [4]): 100 to 1000 nM | Dmax (HiBit-KRAS^G12C [2]; [5]): > 70% | DC50 (HiBit-KRAS^G12C [2]; [6]): 100 to 1000 nM
SMILES: C=C(F)C(=O)N1CCN(c2nc(OCCN3CCC(COCC(=O)N[C@H](C(=O)N4C[C@H](O)C[C@H]4C(=O)N[C@@H](C)c4ccc(-c5ccnn5C)cc4)C(C)(C)C)CC3)nc3c(F)c(-c4cc(O)cc5ccccc45)c(Cl)cc23)C[C@@H]1CC#N (atropisomer, axis not shown) [Compound 129, (2S,4R)-1-[(2S)-2-[2-({1-[2-({6-chloro-4-[(3S)-3-(cyanomethyl)-4-(2-fluoroprop-2-enoyl)piperazin-1-yl]-8-fluoro-7-(3-hydroxynaphthalen-1-yl)quinazolin-2-yl}oxy)ethyl]piperidin-4-yl}methoxy)acetamido]-3,3-dimethylbutanoyl]-4-hydroxy-N-[(1S)-1-[4-(1-methyl-1H-pyrazol-5-yl)phenyl]ethyl]pyrrolidine-2-carboxamide]

Dmax (HiBit-KRAS^G12C [1]; [3]): 35 to 70% | DC50 (HiBit-KRAS^G12C [1]; [4]): > 1000 nM | DC50 (HiBit-KRAS^G12C [2]; [6]): > 1000 nM
SMILES: C=CC(=O)N1CCN(c2nc(OCCN3CCC(COc4cc([C@H](C(=O)N5C[C@H](O)C[C@H]5C(=O)N[C@@H](C)c5ccc(-c6scnc6C)cc5)C(C)C)on4)CC3)nc3c(F)c(-c4cc(O)cc5ccccc45)c(Cl)cc23)CC1 (atropisomer, axis not shown) [Compound 146, (2S,4R)-1-[(2R)-2-(3-{[1-(2-{[6-chloro-8-fluoro-7-(3-hydroxynaphthalen-1-yl)-4-[4-(prop-2-enoyl)piperazin-1-yl]quinazolin-2-yl]oxy}ethyl)piperidin-4-yl]methoxy}-1,2-oxazol-5-yl)-3-methylbutanoyl]-4-hydroxy-N-[(1S)-1-[4-(4-methyl-1,3-thiazol-5-yl)phenyl]ethyl]pyrrolidine-2-carboxamide]
